# Source: publication PMC8545225 (Nanoscale, 2021)
# Test: 2D DOSY NMR diffusion measurement and hydrodynamic size
# Format: physicochemical
# Conditions: DOSY NMR in D2O, free ligands at 289.75 K
row,SMILES,Diffusion coefficient ds
1,"O=S(=O)([O-])c1cccc(P(c2ccccc2)c2ccccc2)c1.[Na+] [TPPMS, triphenylphosphine monosulfonate]",2.42 × 10^−10 m^2·s^−1
2,"O=C(O)c1ccc(P(c2ccccc2)c2ccccc2)cc1 [DPPBA, 4-(diphenylphosphino)benzoic acid]",1.37 × 10^−9 m^2·s^−1
